For the assay, the system named is 743489-274-T-PDC complex spheroid growth. Kind of assay: Anticancer human tumor 743489-274-T-PDC patient-derived renal cell carcinoma cell line growth inhibition [AhR]. As to conditions: for viability, T/C: stronger effect = lower value. Summed up: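 Spheroids combined tumor cells with HUVEC endothelial cells and human MSCs as stroma. AhR antagonists were paired with standard or investigational drugs, each dosed in half-log steps down from near clinical Cmax, or from 10 microM where Cmax was unknown.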

Setting [1] is: curve of first compound, second compound 0.1 µM.
Setting [2] is: curve of first compound, second compound 0.316 µM.
[3] abbreviates: curve of first compound, second compound 1 µM.
The mark [4] stands for this setting: curve of first compound, second compound 3.16 µM.
Setting [5] is: curve of first compound, second compound 10 µM.
Setting [6] is: second compound 0.1 µM, first compound 0.0316 µM.
The mark [7] stands for this setting: second compound 0.1 µM, first compound 0.1 µM.
[8] abbreviates: second compound 0.316 µM, first compound 0.0316 µM.
The mark [9] stands for this setting: second compound 0.316 µM, first compound 0.1 µM.
Where [10] appears, read: second compound 1 µM, first compound 0.0316 µM.
[11] abbreviates: second compound 1 µM, first compound 0.1 µM.
The mark [12] stands for this setting: second compound 3.16 µM, first compound 0.0316 µM.
The mark [13] stands for this setting: second compound 3.16 µM, first compound 0.1 µM.
The mark [14] stands for this setting: second compound 10 µM, first compound 0.0316 µM.
Setting [15] is: second compound 10 µM, first compound 0.1 µM.

“And” between values parts separate entries of the source, which are not always exact repeats. Identical values can stand only once. Some results are limits rather than exact numbers.
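Further: spheroids exposed to agents for 7 days before readout.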
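Wherever viability, T/C is given: 100% = DMSO vehicle control wells.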

In the case of `CCc1c2c(nc3ccc(O)cc13)-c1cc3c(c(=O)n1C2)COC(=O)[C@]3(O)CC` + CC(CO)NC(=O)c1cc(-c2ccc(Cl)cc2)nn(-c2cnn(C)c2)c1=O, the IC50 (usually the concentration that gives 50% inhibition) reads like this: under setting [1], more than 0.3 µM; under setting [2], more than 0.3 µM; under setting [3], more than 0.3 µM; under setting [4], more than 0.3 µM; under setting [5], more than 0.3 µM. Also, the viability, T/C (as a rule, the result in the treated group divided by that in the control group, in per cent) (second compound 0.1 µM, first compound 0.000949 µM) is 107%; the viability, T/C (second compound 0.1 µM, first compound 0.003 µM) is 105%; the viability, T/C (second compound 0.1 µM, first compound 0.00949 µM) is 87%; the viability, T/C (second compound 0.1 µM, first compound 0.03 µM) was 88.1%; the viability, T/C (second compound 0.1 µM, first compound 0.0949 µM) was 70.5%; the viability, T/C (second compound 0.1 µM, first compound 0.3 µM) was 64.5%. Moreover, the viability, T/C (second compound 0.316 µM, first compound 0.000949 µM) was 87.7%; the viability, T/C (second compound 0.316 µM, first compound 0.003 µM) is 94%; the viability, T/C (second compound 0.316 µM, first compound 0.00949 µM) is 103%; the viability, T/C (second compound 0.316 µM, first compound 0.03 µM) was 78.7%; the viability, T/C (second compound 0.316 µM, first compound 0.0949 µM) is 71.5%; the viability, T/C (second compound 0.316 µM, first compound 0.3 µM) was 55.8%. The viability, T/C is, setting by setting: (second compound 1 µM, first compound 0.000949 µM) 98.4%; (second compound 1 µM, first compound 0.003 µM) 88.7%; (second compound 1 µM, first compound 0.00949 µM) 91.6%; (second compound 1 µM, first compound 0.03 µM) 88.7%; (second compound 1 µM, first compound 0.0949 µM) 73.1%; (second compound 1 µM, first compound 0.3 µM) 68.4%. Further, the viability, T/C was 94.2% (second compound 3.16 µM, first compound 0.000949 µM); 100% (second compound 3.16 µM, first compound 0.003 µM); 97.9% (second compound 3.16 µM, first compound 0.00949 µM); 84.3% (second compound 3.16 µM, first compound 0.03 µM); 76.8% (second compound 3.16 µM, first compound 0.0949 µM); 59.3% (second compound 3.16 µM, first compound 0.3 µM). Further, the viability, T/C (second compound 10 µM, first compound 0.000949 µM) is 87.7%; the viability, T/C (second compound 10 µM, first compound 0.003 µM) is 93.1%; the viability, T/C (second compound 10 µM, first compound 0.00949 µM) is 82.7%; the viability, T/C (second compound 10 µM, first compound 0.03 µM) is 97.7%; the viability, T/C (second compound 10 µM, first compound 0.0949 µM) was 79.7%; the viability, T/C (second compound 10 µM, first compound 0.3 µM) is 65.2%.

Turning to `COc1ccc([C@@H](O)c2cc(-c3ncnc4cc(N5CCOCC5)ccc34)c(F)cc2Cl)nn1` + CC(CO)NC(=O)c1cc(-c2ccc(Cl)cc2)nn(-c2cnn(C)c2)c1=O, the half-maximal inhibitory concentration (IC50) runs as follows: under setting [1], 3.1 µM; under setting [2], 3.68 µM; under setting [3], 3.25 µM; under setting [4], 2.6 µM; under setting [5], 2.73 µM. The viability, T/C by setting is: under setting [6], 103%; under setting [7], 96.8%; (second compound 0.1 µM, first compound 0.316 µM) 92.4%; (second compound 0.1 µM, first compound 1 µM) 86%; (second compound 0.1 µM, first compound 3.16 µM) 48.8%; (second compound 0.1 µM, first compound 10 µM) 28.8%. Besides, the viability, T/C by setting is: under setting [8], 86%; under setting [9], 87.8%; (second compound 0.316 µM, first compound 0.316 µM) 89.4%; (second compound 0.316 µM, first compound 1 µM) 78.2%; (second compound 0.316 µM, first compound 3.16 µM) 54%; (second compound 0.316 µM, first compound 10 µM) 25.2%. For the same compound, the viability, T/C reads like this: under setting [10], 87.9%; under setting [11], 89.4%; (second compound 1 µM, first compound 0.316 µM) 88.2%; (second compound 1 µM, first compound 1 µM) 77.9%; (second compound 1 µM, first compound 3.16 µM) 50.7%; (second compound 1 µM, first compound 10 µM) 25.5%. Further, the viability, T/C under setting [12] was 92.3%; the viability, T/C under setting [13] is 81.7%; the viability, T/C (second compound 3.16 µM, first compound 0.316 µM) is 87.3%; the viability, T/C (second compound 3.16 µM, first compound 1 µM) was 73.9%; the viability, T/C (second compound 3.16 µM, first compound 3.16 µM) is 45%; the viability, T/C (second compound 3.16 µM, first compound 10 µM) was 25.7%. The viability, T/C runs as follows: under setting [14], 101%; under setting [15], 92%; (second compound 10 µM, first compound 0.316 µM) 93.8%; (second compound 10 µM, first compound 1 µM) 79.3%; (second compound 10 µM, first compound 3.16 µM) 45.5%; (second compound 10 µM, first compound 10 µM) 20.9%.

On to `COc1ccc([C@@H](O)c2cc(-c3ncnc4cc(N5CCOCC5)ccc34)c(F)cc2Cl)nn1`, for which the viability, T/C was 107% and 116% and 95% (compound 0.0316 µM); 105% and 102% and 106% (compound 0.1 µM); 94.2% and 93.8% and 101% (compound 0.316 µM); 93.3% and 90.2% and 84.6% (compound 1 µM); 65% and 45.8% and 61.5% (compound 3.16 µM); 46.3% and 26% and 26.9% (compound 10 µM). Further, the IC50 (curve of compound) is 7.94 µM and 3.03 µM and 4.53 µM.

Turning to `CC[C@@]1(O)C(=O)OCc2c1cc1n(c2=O)Cc2cc3c(CN(C)C)c(O)ccc3nc2-1` + Cc1ccccc1N=Nc1ccc(NC(=O)c2ccnn2C)c(C)c1, the IC50 by setting is: under setting [1], more than 0.1 µM; under setting [2], more than 0.1 µM; under setting [3], more than 0.1 µM; under setting [4], more than 0.1 µM; under setting [5], more than 0.1 µM. For the same compound, the viability, T/C was 98.8% (second compound 0.1 µM, first compound 0.000316 µM); 98.7% (second compound 0.1 µM, first compound 0.001 µM); 111% (second compound 0.1 µM, first compound 0.00316 µM); 95.8% (second compound 0.1 µM, first compound 0.01 µM); 89.3% under setting [6]; 80.9% under setting [7]. The viability, T/C reads like this: (second compound 0.316 µM, first compound 0.000316 µM) 98.2%; (second compound 0.316 µM, first compound 0.001 µM) 105%; (second compound 0.316 µM, first compound 0.00316 µM) 106%; (second compound 0.316 µM, first compound 0.01 µM) 96.6%; under setting [8], 89.3%; under setting [9], 85.9%. Moreover, the viability, T/C reads like this: (second compound 1 µM, first compound 0.000316 µM) 89.1%; (second compound 1 µM, first compound 0.001 µM) 94%; (second compound 1 µM, first compound 0.00316 µM) 92.6%; (second compound 1 µM, first compound 0.01 µM) 81.1%; under setting [10], 87%; under setting [11], 77.4%. The viability, T/C (second compound 3.16 µM, first compound 0.000316 µM) is 87.4%; the viability, T/C (second compound 3.16 µM, first compound 0.001 µM) was 81.2%; the viability, T/C (second compound 3.16 µM, first compound 0.00316 µM) was 93.3%; the viability, T/C (second compound 3.16 µM, first compound 0.01 µM) is 90.4%; the viability, T/C under setting [12] is 90.4%; the viability, T/C under setting [13] is 79.9%. Further, the viability, T/C by setting is: (second compound 10 µM, first compound 0.000316 µM) 88.9%; (second compound 10 µM, first compound 0.001 µM) 80.7%; (second compound 10 µM, first compound 0.00316 µM) 87.4%; (second compound 10 µM, first compound 0.01 µM) 86.2%; under setting [14], 80.7%; under setting [15], 63.5%.

As for `COc1cc(C2c3cc4c(cc3C(OC3OC5COC(C)OC5C(O)C3O)C3COC(=O)C23)OCO4)cc(OC)c1O` (centres undefined), the viability, T/C (compound 0.0316 µM) was 98.8% and 103% and 94.7%; the viability, T/C (compound 0.1 µM) was 105% and 103% and 102%; the viability, T/C (compound 0.316 µM) is 95.7% and 114% and 106%; the viability, T/C (compound 1 µM) is 94.6% and 100% and 98.3%; the viability, T/C (compound 3.16 µM) was 95.8% and 108% and 98.9%; the viability, T/C (compound 10 µM) is 80% and 91.7% and 92.8%. In addition, under “curve of compound”, the IC50 is more than 10 µM.
